Assay results published in patent US20240245677A1, “SELECTED COMPOUNDS FOR TARGETED DEGRADATION OF BRD9” (C4 THERAPEUTICS, INC., priority 2021, published 2024).
“And” between values parts separate entries of the source, which are not always exact repeats. Equal entries are not always repeated. Where two headings read alike, the source gives them in different places.

Experiment: Pharmacokinetic study in male Sprague Dawley rats
Assay type: in vivo, rat
Details: for concentration at 0.033 h / concentration at 0.33 h / concentration at 1 h / concentration at 2 h / concentration at 4 h / concentration at 8 h / concentration at 24 h: male, Sprague Dawley
Description: The pharmacokinetic (PK) profile in plasma of Compound 1 was determined in male Sprague Dawley rats following single dose intravenous (IV) (2 mg/kg) and per os (PO) (10 mg/kg) administration. This study was performed under non-GLP conditions, and unless otherwise stated, all analytical reagents were at least standard laboratory reagent grade, and deionized water was prepared at the study site.
The characteristics of Compound 1 used in this study were as follows: molecular weight of base, 710.78; molecular weight of Compound 1 with salt, 824.81; purity on as is basis, 99.28%.
All animals were housed in cages with clean bedding and maintained and monitored for good health and at the discretion of the laboratory animal veterinarian. Certified rodent diet was provided, and water was available ad libitum. Environmental controls for the animal room were set to maintain a temperature of 22 to 25° C., humidity of 40-70% relative humidity, and a 12-hour light/12-hour dark cycle.
Normal healthy animals certified by the attending veterinarian were selected and acclimatized for a minimum of three days prior to initiation of the study. Animals were identified by body markings.
The rats were anaesthetized with a single dose of ketamine 50 mg/kg i.p. plus xylazine 6 mg/kg i.p. The right jugular was exposed, and a loose ligature was placed caudally, and the cranial end of the vein was ligated. A small incision was made between the ligatures into which a catheter (polyethylene 50 tubing with an internal diameter of 0.58 mm and outer diameter of 0.96 mm) was inserted. The catheter was secured in place by tying the loose ligature around the catheterized vessel. A small incision was made in the scapular region to serve as the exit site of the catheter. The catheter was subcutaneously tunneled and exteriorized through the scapular incision. A stay suture was placed in the scapular area. Patency was tested, and the catheter was filled with a locking solution (heparinized saline) and sealed with a stainless-steel plug. The incision was then sutured with sterile suturing material. Anti-septic solution was applied to the sutured site and the animal was placed back in its home cage. The animals were closely observed throughout the recovery period of 24 hours. The rats were freely moving in the cage (one rat per cage).
Test animals were weighed prior to drug administration, and the standard weight of the animals used was 190 grams. The animals were divided into two groups, IV group and PO group, with each group containing 3 test animals each and 2 spare animals. The IV dose was administered by intravenous injection into the tail vein and PO dose was administered via oral gavage needle. The dosing volume was 5 mL/kg body weight for both groups. The dosing concentration was 0.4 mg/mL for the IV group and 2 mg/mL for the PO group. The animals were in fasted state during the study.
For both dosing groups, blood was collected from the jugular vein (serial sampling) for plasma isolation at 0.033, 0.33, 1, 2, 4, 6, 8, and 24 hour timepoints. The anti-coagulant solution used was 6% (v/v) sodium citrate (200 mM, pH 4.79).
For sample collection, the animals were held to remove the first two drops of blood from the cannula to ensure removal of any excess heparinized saline before collection of blood. The external catheter was connected to a syringe and 0.20-0.30 mL of blood was collected in the syringe and transferred to a pre-labeled, pre-chilled tube. Blood volume was replaced by administering to the animal an equal volume of saline through the jugular vein. After blood collection from each animal, the sample from that animal was recorded in the sample collection sheet.
After collection of each blood sample, the blood sample was stored on ice prior to centrifugation. Blood samples were centrifuged within 20 minutes of collection to separate plasma. Centrifugation was conducted at 2500×g for 15 minutes at 4° C. […]

[1] = rat, plasma, 2 mg/kg IV, Male Sprague Dawley Rats, mean
[2] = rat, plasma, 10 mg/kg PO, Male Sprague Dawley Rats, mean

## COc1cc(-c2cn(C)c(=O)c(C)c2C)cc(OC)c1CN1CC[C@H](N2CCN(c3ccc(N[C@H]4CCC(=O)NC4=O)cc3F)CC2)C(F)(F)C1 [Compound 1, (S)-3-((4-(4-((S)-1-(2,6-dimethoxy-4-(1,4,5-trimethyl-6-oxo-1,6-dihydropyridin-3-yl)benzyl)-3,3-difluoropiperidin-4-yl)piperazin-1-yl)-3-fluorophenyl)amino)-piperidine-2,6-dione]
2 mg/kg IV, 0.033 h
  Plasma Concentration, individual rats: 827.34 ng/mL and 751.46 ng/mL
2 mg/kg IV, 0.33 h
  Plasma Concentration, individual rats: 387.61 ng/mL and 411.63 ng/mL
2 mg/kg IV, 1 h
  Plasma Concentration, individual rats: 253.11 ng/mL and 196.32 ng/mL
2 mg/kg IV, 2 h
  Plasma Concentration, individual rats: 175.63 ng/mL and 182.50 ng/mL
2 mg/kg IV, 4 h
  Plasma Concentration, individual rats: 82.15 ng/mL and 113.01 ng/mL
2 mg/kg IV, 8 h
  Plasma Concentration, individual rats: 66.27 ng/mL and 68.01 ng/mL
2 mg/kg IV, 24 h
  Plasma Concentration, individual rats: 2.51 ng/mL and 4.24 ng/mL
2 mg/kg IV, Male Sprague Dawley Rats, mean
  CI: 21.64 mL/min/kg
rat, plasma, intravenous, 2 mg/kg, 2 mg/kg IV, 0.033 h, read-out: Plasma Concentration, Average
  concentration at 0.033 h: 811 ng/mL
rat, plasma, intravenous, 2 mg/kg, 2 mg/kg IV, 0.033 h, read-out: Plasma Concentration, individual rats
  concentration at 0.033 h: 854 ng/mL
rat, plasma, intravenous, 2 mg/kg, 2 mg/kg IV, 0.33 h, read-out: Plasma Concentration, Average
  concentration at 0.33 h: 395 ng/mL
rat, plasma, intravenous, 2 mg/kg, 2 mg/kg IV, 0.33 h, read-out: Plasma Concentration, individual rats
  concentration at 0.33 h: 385 ng/mL
rat, plasma, intravenous, 2 mg/kg, 2 mg/kg IV, 1 h, read-out: Plasma Concentration, Average
  concentration at 1 h: 202 ng/mL
rat, plasma, intravenous, 2 mg/kg, 2 mg/kg IV, 1 h, read-out: Plasma Concentration, individual rats
  concentration at 1 h: 158 ng/mL
rat, plasma, intravenous, 2 mg/kg, 2 mg/kg IV, 2 h, read-out: Plasma Concentration, Average
  concentration at 2 h: 181 ng/mL
rat, plasma, intravenous, 2 mg/kg, 2 mg/kg IV, 2 h, read-out: Plasma Concentration, individual rats
  concentration at 2 h: 186 ng/mL
rat, plasma, intravenous, 2 mg/kg, 2 mg/kg IV, 4 h, read-out: Plasma Concentration, Average
  concentration at 4 h: 107 ng/mL
rat, plasma, intravenous, 2 mg/kg, 2 mg/kg IV, 4 h, read-out: Plasma Concentration, individual rats
  concentration at 4 h: 125 ng/mL
rat, plasma, intravenous, 2 mg/kg, 2 mg/kg IV, 8 h, read-out: Plasma Concentration, Average
  concentration at 8 h: 61.9 ng/mL
rat, plasma, intravenous, 2 mg/kg, 2 mg/kg IV, 8 h, read-out: Plasma Concentration, individual rats
  concentration at 8 h: 51.4 ng/mL
rat, plasma, intravenous, 2 mg/kg, 2 mg/kg IV, 24 h, read-out: Plasma Concentration, Average
  concentration at 24 h: 3.76 ng/mL
rat, plasma, intravenous, 2 mg/kg, 2 mg/kg IV, 24 h, read-out: Plasma Concentration, individual rats
  concentration at 24 h: 4.54 ng/mL
rat, plasma, oral, 10 mg/kg, 10 mg/kg PO, Male Sprague Dawley Rats, 0.033 h, Rat-1, read-out: Plasma Concentration (ng/mL) Rat-1
  concentration at 0.033 h: 2.98 ng/mL
rat, plasma, oral, 10 mg/kg, 10 mg/kg PO, Male Sprague Dawley Rats, 0.033 h, Rat-2, read-out: Plasma Concentration (ng/mL) Rat-2
  concentration at 0.033 h: 16.4 ng/mL
rat, plasma, oral, 10 mg/kg, 10 mg/kg PO, Male Sprague Dawley Rats, 0.033 h, Rat-3, read-out: Plasma Concentration (ng/mL) Rat-3
  concentration at 0.033 h: 1.81 ng/mL
rat, plasma, oral, 10 mg/kg, 10 mg/kg PO, Male Sprague Dawley Rats, 0.033 h, average, read-out: Plasma Concentration Average
  concentration at 0.033 h: 7.06 ng/mL
rat, plasma, oral, 10 mg/kg, 10 mg/kg PO, Male Sprague Dawley Rats, 0.33 h, Rat-1, read-out: Plasma Concentration (ng/mL) Rat-1
  concentration at 0.33 h: 215 ng/mL
rat, plasma, oral, 10 mg/kg, 10 mg/kg PO, Male Sprague Dawley Rats, 0.33 h, Rat-2, read-out: Plasma Concentration (ng/mL) Rat-2
  concentration at 0.33 h: 177 ng/mL
rat, plasma, oral, 10 mg/kg, 10 mg/kg PO, Male Sprague Dawley Rats, 0.33 h, Rat-3, read-out: Plasma Concentration (ng/mL) Rat-3
  concentration at 0.33 h: 350 ng/mL
rat, plasma, oral, 10 mg/kg, 10 mg/kg PO, Male Sprague Dawley Rats, 0.33 h, average, read-out: Plasma Concentration Average
  concentration at 0.33 h: 247 ng/mL
rat, plasma, oral, 10 mg/kg, 10 mg/kg PO, Male Sprague Dawley Rats, 1 h, Rat-1, read-out: Plasma Concentration (ng/mL) Rat-1
  concentration at 1 h: 648 ng/mL
rat, plasma, oral, 10 mg/kg, 10 mg/kg PO, Male Sprague Dawley Rats, 1 h, Rat-2, read-out: Plasma Concentration (ng/mL) Rat-2
  concentration at 1 h: 416 ng/mL
rat, plasma, oral, 10 mg/kg, 10 mg/kg PO, Male Sprague Dawley Rats, 1 h, Rat-3, read-out: Plasma Concentration (ng/mL) Rat-3
  concentration at 1 h: 729 ng/mL
rat, plasma, oral, 10 mg/kg, 10 mg/kg PO, Male Sprague Dawley Rats, 1 h, average, read-out: Plasma Concentration Average
  concentration at 1 h: 598 ng/mL
rat, plasma, oral, 10 mg/kg, 10 mg/kg PO, Male Sprague Dawley Rats, 2 h, Rat-1, read-out: Plasma Concentration (ng/mL) Rat-1
  concentration at 2 h: 560 ng/mL
rat, plasma, oral, 10 mg/kg, 10 mg/kg PO, Male Sprague Dawley Rats, 2 h, Rat-2, read-out: Plasma Concentration (ng/mL) Rat-2
  concentration at 2 h: 864 ng/mL
rat, plasma, oral, 10 mg/kg, 10 mg/kg PO, Male Sprague Dawley Rats, 2 h, Rat-3, read-out: Plasma Concentration (ng/mL) Rat-3
  concentration at 2 h: 594 ng/mL
rat, plasma, oral, 10 mg/kg, 10 mg/kg PO, Male Sprague Dawley Rats, 2 h, average, read-out: Plasma Concentration Average
  concentration at 2 h: 673 ng/mL
rat, plasma, oral, 10 mg/kg, 10 mg/kg PO, Male Sprague Dawley Rats, 4 h, Rat-1, *Outlier: Aberrant value, read-out: Plasma Concentration (ng/mL) Rat-1
  concentration at 4 h: 227 ng/mL
rat, plasma, oral, 10 mg/kg, 10 mg/kg PO, Male Sprague Dawley Rats, 4 h, Rat-2, read-out: Plasma Concentration (ng/mL) Rat-2
  concentration at 4 h: 593 ng/mL
rat, plasma, oral, 10 mg/kg, 10 mg/kg PO, Male Sprague Dawley Rats, 4 h, Rat-3, read-out: Plasma Concentration (ng/mL) Rat-3
  concentration at 4 h: 420 ng/mL
rat, plasma, oral, 10 mg/kg, 10 mg/kg PO, Male Sprague Dawley Rats, 4 h, average, read-out: Plasma Concentration Average
  concentration at 4 h: 506 ng/mL
rat, plasma, oral, 10 mg/kg, 10 mg/kg PO, Male Sprague Dawley Rats, 8 h, Rat-1, read-out: Plasma Concentration (ng/mL) Rat-1
  concentration at 8 h: 304 ng/mL
rat, plasma, oral, 10 mg/kg, 10 mg/kg PO, Male Sprague Dawley Rats, 8 h, Rat-2, read-out: Plasma Concentration (ng/mL) Rat-2
  concentration at 8 h: 527 ng/mL
rat, plasma, oral, 10 mg/kg, 10 mg/kg PO, Male Sprague Dawley Rats, 8 h, Rat-3, read-out: Plasma Concentration (ng/mL) Rat-3
  concentration at 8 h: 370 ng/mL
rat, plasma, oral, 10 mg/kg, 10 mg/kg PO, Male Sprague Dawley Rats, 8 h, average, read-out: Plasma Concentration Average
  concentration at 8 h: 400 ng/mL
rat, plasma, oral, 10 mg/kg, 10 mg/kg PO, Male Sprague Dawley Rats, 24 h, Rat-1, read-out: Plasma Concentration (ng/mL) Rat-1
  concentration at 24 h: 21.5 ng/mL
rat, plasma, oral, 10 mg/kg, 10 mg/kg PO, Male Sprague Dawley Rats, 24 h, Rat-2, read-out: Plasma Concentration (ng/mL) Rat-2
  concentration at 24 h: 49.3 ng/mL
rat, plasma, oral, 10 mg/kg, 10 mg/kg PO, Male Sprague Dawley Rats, 24 h, Rat-3, read-out: Plasma Concentration (ng/mL) Rat-3
  concentration at 24 h: 36.8 ng/mL
rat, plasma, oral, 10 mg/kg, 10 mg/kg PO, Male Sprague Dawley Rats, 24 h, average, read-out: Plasma Concentration Average
  concentration at 24 h: 35.8 ng/mL
[1]
  AUC(0-inf): 1540 ng·h/mL
  AUC(0-t): 1520 ng·h/mL
  C0: 879 ng/mL
  MRT last: 4.82 h
  half-life: 3.97 h
rat, plasma, 2 mg/kg IV, Male Sprague Dawley Rats, mean, read-out: Vdss
  Vd: 6.7 L/kg
[2]
  AUC(0-inf): 6560 ng·h/mL
  AUC(0-t): 6290 ng·h/mL
  Cmax: 747 ng/mL
  MRT last: 7.34 h
  Tmax: 1.33 h
  bioavailability: 82.8%
  half-life: 5.12 h
